Test results: ChEMBL document CHEMBL2169878 (J Med Chem, 2012)
Activity calls are given as the source filed them. The calls are words filed in the database; no cut-off is given here.

How the values were obtained:
Plasmodium falciparum [1] = experiment: Antiplasmodial activity against chloroquine-sensitive Plasmodium falciparum NF54 infected in human erythrocytes assessed as inhibition of [3H]hypoxanthine incorporation incubated for 48 hrs prior to [3H]hypoxanthine addition measured after 48 hrs by liquid scintillation counting; assay type: functional, organism-based
Plasmodium falciparum [2] = experiment: Antiplasmodial activity against chloroquine-sensitive Plasmodium falciparum D10 infected in human RBC after 72 hrs by parasite lactate dehydrogenase assay; assay type: functional, organism-based; conditions: D10, 72 h
Plasmodium falciparum [3] = experiment: Antiplasmodial activity against chloroquine-resistant Plasmodium falciparum W2 infected in human RBC after 72 hrs by parasite lactate dehydrogenase assay; assay type: functional, organism-based; conditions: W2, 72 h
Plasmodium falciparum [4] = experiment: Antiplasmodial activity against chloroquine-resistant Plasmodium falciparum K1 infected in human erythrocytes assessed as inhibition of [3H]hypoxanthine incorporation incubated for 48 hrs prior to [3H]hypoxanthine addition measured after 48 hrs by liquid scintillation counting; assay type: functional, organism-based
[5] = molecular target: T1, Chloroquine resistance transporter (Plasmodium falciparum) (UniProt Q9N623); experiment: Inhibition of chloroquine-resistant Plasmodium falciparum Dd2 CRT expressed in Xenopus laevis oocyte assessed as inhibition of [3H]chloroquine uptake at 100 uM measured from 1 to 2 hrs
T1 sequence (whole entry): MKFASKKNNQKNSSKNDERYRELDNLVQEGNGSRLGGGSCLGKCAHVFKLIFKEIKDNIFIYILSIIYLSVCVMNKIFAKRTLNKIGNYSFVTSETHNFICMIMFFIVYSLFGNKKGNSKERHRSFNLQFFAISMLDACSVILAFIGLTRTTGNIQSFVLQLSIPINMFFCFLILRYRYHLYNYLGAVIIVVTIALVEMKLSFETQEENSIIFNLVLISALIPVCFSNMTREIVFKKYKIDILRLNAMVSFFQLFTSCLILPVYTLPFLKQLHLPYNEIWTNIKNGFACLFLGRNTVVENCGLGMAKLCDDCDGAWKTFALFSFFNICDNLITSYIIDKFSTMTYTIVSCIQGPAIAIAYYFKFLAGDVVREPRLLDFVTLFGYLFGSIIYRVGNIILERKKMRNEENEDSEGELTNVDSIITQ

Plasmodium falciparum [6] = experiment: Resistance ratio of IC50 for chloroquine-resistant Plasmodium falciparum W2 to IC50 for chloroquine-sensitive Plasmodium falciparum D10; assay type: functional
[7] = molecular target: Chloroquine resistance transporter (Plasmodium falciparum, UniProt Q9N623); experiment: Inhibition of chloroquine-resistant Plasmodium falciparum Dd2 CRT expressed in Xenopus laevis oocyte assessed as inhibition of [3H]chloroquine uptake measured from 1 to 2 hrs
Plasmodium falciparum [8] = experiment: Resistance ratio of IC50 for chloroquine-resistant Plasmodium falciparum K1 to IC50 for chloroquine-sensitive Plasmodium falciparum NF54; assay type: functional
[9] = Cytotoxicity against human HepG2 cells after 24 hrs by neutral red dye uptake assay; assay type: cell-based; conditions: read-out: TC50
[10] = Cytotoxicity against mouse NIH3T3 cells after 24 hrs by neutral red dye uptake assay; assay type: cell-based; conditions: read-out: TC50

Clc1cccc(C(Nc2ccnc3cc(Cl)ccc23)c2ccc(CN3CCOCC3)c(Cl)c2)c1 (racemic)
IC50 (Plasmodium falciparum [1]): 47 nM | IC50 (Plasmodium falciparum [2]): 442 nM | IC50 (Plasmodium falciparum [3]): 277 nM | IC50 (Plasmodium falciparum [4]): 107 nM

Clc1ccc(C(c2ccccc2)(c2ccc(CN3CCCC3)cc2)n2ccnc2)cc1 (racemic)
inhibition [5]: Active

Clc1ccc(C(Nc2ccnc3cc(Cl)ccc23)c2ccc(CN3CCN(Cc4ccccc4)CC3)cc2)cc1 (racemic)
IC50 (Plasmodium falciparum [2]): 163 nM | IC50 (Plasmodium falciparum [3]): 790 nM | Ratio IC50 (Plasmodium falciparum [6]): 4.8

COc1cc(C(Nc2ccnc3cc(Cl)ccc23)c2ccc(Cl)cc2)ccc1CN1CCCC1 (racemic)
IC50 (Plasmodium falciparum [2]): 31 nM | IC50 (Plasmodium falciparum [3]): 48 nM

CC(C)(C)NC(=O)[C@@H]1C[C@@H]2CCCC[C@@H]2CN1C[C@@H](O)[C@H](Cc1ccccc1)NC(=O)[C@H](CC(N)=O)NC(=O)c1ccc2ccccc2n1
IC50 [7]: 13000 nM

Clc1cccc(C(Nc2ccnc3cc(Cl)ccc23)c2ccc(CN3CCN(c4ccnc5cc(Cl)ccc45)CC3)c(Cl)c2)c1 (racemic)
IC50 (Plasmodium falciparum [1]): 83 nM | IC50 (Plasmodium falciparum [2]): 104 nM | IC50 (Plasmodium falciparum [3]): 58 nM | IC50 (Plasmodium falciparum [4]): 10 nM

COc1ccc(CCN(C)CCCC(C#N)(c2ccc(OC)c(OC)c2)C(C)C)cc1OC (stereo unspecified)
inhibition [5]: 74%

Clc1ccc(C(Nc2ccnc3cc(Cl)ccc23)c2ccc(CN3CCCC3)cc2)cc1 (racemic)
inhibition [5]: 70% | Ratio IC50 (Plasmodium falciparum [8]): 1.1 | Ratio IC50 (Plasmodium falciparum [6]): 1.6

COc1ccc2nccc(NC(c3cccc(Cl)c3)c3ccc(CN4CCCC4)c(F)c3)c2c1 (racemic)
IC50 (Plasmodium falciparum [2]): 41 nM | IC50 (Plasmodium falciparum [3]): 101 nM

Clc1ccccc1C(c1ccccc1)(c1ccccc1)n1ccnc1 [CLOTRIMAZOLE]
CC50 at 24 h [9]: > 48000 nM | CC50 at 24 h [10]: > 48000 nM

Clc1ccc(C(Nc2ccnc3cc(Cl)ccc23)c2ccc(CN3CCN(Cc4ccc(C(Nc5ccnc6cc(Cl)ccc56)c5ccc(Cl)cc5)cc4)CC3)cc2)cc1 (racemic)
IC50 (Plasmodium falciparum [1]): 89 nM | IC50 (Plasmodium falciparum [2]): 190 nM | Ratio IC50 (Plasmodium falciparum [8]): 0.6 | IC50 (Plasmodium falciparum [3]): 98 nM | IC50 (Plasmodium falciparum [4]): 56 nM | Ratio IC50 (Plasmodium falciparum [6]): 0.5

COc1ccc2nccc(NC(c3ccc(Cl)cc3)c3ccc(CN4CCCC4)c(Cl)c3)c2c1 (racemic)
IC50 (Plasmodium falciparum [2]): 24 nM | IC50 (Plasmodium falciparum [3]): 76 nM
